Values joined by “and” are separate entries in the source; they are usually repeats but may differ in a detail not shown here. Equal values may be shown once.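 Following 48 hours of exposure in 96-well plates, responses at five concentrations were used to interpolate endpoints linearly. Abbreviation: GI50, concentration required for 50% inhibition of growth. TGI is the concentration that stops growth completely.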
Key:
Assay in all cases: growth of human tumour cells (NCI), 48 h
A549 NSCLC = system: A549 NSCLC
SK-MEL-5 melanoma = system: SK-MEL-5 melanoma
RPMI-8226 leukemia = system: RPMI-8226 leukemia
SW-620 colon = system: SW-620 colon
K-562 leukemia = system: K-562 leukemia
CCRF-CEM leukemia = system: CCRF-CEM leukemia
HT29 colon = system: HT29 colon
ACHN renal = system: ACHN renal
SN12C renal = system: SN12C renal
HOP-92 NSCLC = system: HOP-92 NSCLC

Compound	GI50 (A549 NSCLC) [µM]	TGI (A549 NSCLC)	GI50 (SK-MEL-5 melanoma) [µM]	TGI (SK-MEL-5 melanoma)	GI50 (RPMI-8226 leukemia) [µM]	TGI (RPMI-8226 leukemia) [µM]	GI50 (SW-620 colon) [µM]	TGI (SW-620 colon) [µM]	GI50 (K-562 leukemia) [µM]	TGI (K-562 leukemia)	GI50 (CCRF-CEM leukemia) [µM]	TGI (CCRF-CEM leukemia)	GI50 (HT29 colon) [µM]	TGI (HT29 colon)	GI50 (ACHN renal) [µM]	TGI (ACHN renal)	GI50 (SN12C renal) [µM]	TGI (SN12C renal)	TGI (HOP-92 NSCLC) [µM]	GI50 (HOP-92 NSCLC) [µM]
CC(C)=Cc1cc(C)c2ccc(C)c3c2c1C(C)=C(O)C3=O	32	> 100 µM	15.3	28.9 µM	4.38	24.7	30	> 100	10.3	24.7 µM	4.45	19.7 µM	28.7	> 100 µM	> 100	> 100 µM	24.3	61.6 µM		
CC(/C=C/C(=O)c1sc(C(N)=S)nc1C)=C\c1ccccc1		> 100 µM		> 100 µM		44.6				> 100 µM		> 100 µM		> 100 µM		> 100 µM		> 100 µM	> 100	
O=C1C(Cl)=C(Cl)C(=O)N1c1ccc(Cl)c(Cl)c1Cl		> 100 µM		> 100 µM		> 100		> 100		91.8 µM		45.6 µM		> 100 µM		> 100 µM		> 100 µM	88.5	
O=C1NC(=O)C(=Cc2cn(Cc3ccccc3)c3ccccc23)C(=O)N1	13	30.7 µM	11.3	> 55.5 µM	8.23	> 61.3	12.1	28.9	4.23	> 48.6 µM	20.5	> 67.2 µM	23.5	> 60.8 µM	19.8	53.9 µM	13.5	40 µM	19.9	1.5
COC(=O)/C(C#N)=C1\CCC(OC)N1C (stereo not drawn)		> 100 µM		> 100 µM		> 100		> 100		> 100 µM		> 100 µM		> 100 µM		> 100 µM		> 100 µM		
COc1cc2c(cc1OC)C(C(CBr)CBr)N(C1CCCC1)CC2 (stereo not drawn)		> 100 µM		> 100 µM		> 100		> 100		> 100 µM		> 100 µM		> 100 µM		> 100 µM			> 100	
Cc1ccc(N2C(=O)/C(=C/c3ccc(N(CCC#N)CCC#N)cc3)N=C2COc2ccc(Cl)cc2Cl)cc1		> 100 µM		> 100 µM		> 100		> 100		> 100 µM		> 100 µM		> 100 µM		> 100 µM		> 100 µM		
O=c1c2ccccc2oc2ccccc12 (tested in a mixture with another compound)		> 100 µM		7.61 µM		> 100		> 100		> 100 µM		> 100 µM				> 100 µM		60.8 µM		
C1CSC[C@H]2COC[C@@H](CSCCS1)S2		> 100 µM		> 100 µM				> 100		> 100 µM		> 100 µM		> 100 µM				> 100 µM	> 100	
CN1CCN=C1c1nnn(-c2ccc([N+](=O)[O-])cc2)c1-c1ccccc1		> 100 µM		> 100 µM				> 100		> 100 µM		59 µM		> 100 µM		> 100 µM		> 100 µM	94.5	
Cc1nc(NS(=O)(=O)c2ccc(NCN3C(=O)c4ccccc4C3=O)cc2)oc1C	> 100	> 100 µM	> 100	> 100 µM	> 100	> 100	> 100	> 100	> 100	> 100 µM	0.0113	0.0422 µM	> 100	> 100 µM	> 100	> 100 µM	> 100	> 100 µM		
CC(C)[P+](c1ccccc1)(c1ccccc1)c1ccccc1	5.07	> 100 µM	2.22	7.9 µM	1.72	23.6	6.83	> 100	2.4	> 100 µM	4.2	> 100 µM	5.8	> 100 µM	86.8	> 100 µM	11.5	> 100 µM		
CCOC(=O)c1c(-c2ccccc2)[n+](=O)c2cc(F)c(F)cc2n1[O-]	2.14	4.46 µM	1.53	3.52 µM	1.02	3.98	0.494	3.57	0.702	> 100 µM			1.51	3.27 µM	1.38	2.8 µM			2.73	1.14
CC(C)C1(NC(=O)C2CC3c4cccc5[nH]cc(c45)CC3N(C)C2)OC2(O)C3CCCN3C(=O)C(Cc3ccccc3)N2C1=O (stereo not drawn)		> 100 µM		> 100 µM		39.8		> 100				> 100 µM		> 100 µM		> 100 µM		> 100 µM	> 100	
CCC1CCCCN1CC(C(C)=O)C(c1ccccc1)c1c(O)c2ccccc2oc1=O (stereo not drawn)		> 100 µM		> 100 µM		> 100		> 100		> 100 µM		> 100 µM		> 100 µM		> 100 µM		> 100 µM		
COc1ccc(Br)c(CN2CCc3ccccc32)c1OS(=O)(=O)c1ccc(C)cc1		> 100 µM				> 100		> 100		> 100 µM		> 100 µM				> 100 µM		> 100 µM	> 100	
COc1ccc(-c2cc3ccccc3[nH]c2=O)cc1OC		> 100 µM				> 100		> 100		> 100 µM		> 100 µM		> 100 µM		> 100 µM		> 100 µM		
O=C1CS/C(=N/S(=O)(=O)c2ccc(N3N=C4c5ccccc5CC4C3c3cccs3)cc2)N1C(=O)c1ccccc1 (stereo not drawn)	70.8	> 100 µM	22.7	69.6 µM	34	> 100	38.5	> 100			37.5	> 100 µM	76.1	> 100 µM	39	> 100 µM	49.6	> 100 µM	> 100	37.3

Compound	GI50 (A549 NSCLC) [µM]	TGI (A549 NSCLC)	GI50 (SK-MEL-5 melanoma) [µM]	TGI (SK-MEL-5 melanoma)	GI50 (RPMI-8226 leukemia) [µM]	TGI (RPMI-8226 leukemia) [µM]	GI50 (SW-620 colon) [µM]	TGI (SW-620 colon) [µM]	GI50 (K-562 leukemia) [µM]	TGI (K-562 leukemia)	GI50 (CCRF-CEM leukemia) [µM]	TGI (CCRF-CEM leukemia)	GI50 (HT29 colon) [µM]	TGI (HT29 colon)	GI50 (ACHN renal) [µM]	TGI (ACHN renal)	GI50 (SN12C renal) [µM]	TGI (SN12C renal)	TGI (HOP-92 NSCLC) [µM]	GI50 (HOP-92 NSCLC) [µM]
COc1cc(/C=C/C(=O)CC(=O)/C=C/c2cc(OC)c(O)c(OC)c2)cc(OC)c1O	16.6	25 µM and > 100 µM	13.2	25 µM and 36.4 µM		30.8		> 100		25 µM and > 100 µM	4.01	> 25 µM and 64.8 µM	26.3	25 µM and > 100 µM	42.2	25 µM and > 100 µM	57.3	23.7 µM and > 100 µM		
CC12OC(C(=O)C13CC3)C1C(=O)c3c(O)ccc(O)c3C(=O)C12 (stereo not drawn)	17.5	39.2 µM							13.8	34.6 µM			16.2	38.9 µM	3.54	15.2 µM			41	11.9
NC1=NC(SCc2ccccc2CCl)c2ncn(Cc3ccccc3CCl)c2N1 (stereo not drawn)	2.04	5.01 µM	1.71	3.25 µM			1.54	3.57	2.35	10.2 µM	1.79	5.68 µM	1.88	4.01 µM	2.07	5.45 µM	2.76	9.85 µM	2.39	1.1
C=C(C)[C@@H]1CCc2c(O)c(O)c(=O)cc(C)c2C1		> 100 µM		3.49 µM		> 100		> 100		> 27.6 µM				> 100 µM		14.1 µM		> 100 µM	17	
CCN(CC)CCCNCc1cc(-c2ccccc2)nc2cc(Cl)ccc12	7.02	21.2 µM	1.57	3.13 µM	2.46	5.93	1.97	3.94	1.94	6.61 µM			2.2	5.39 µM	3.74	14.2 µM	4.69	18.2 µM	5.02	1.16
CN1CCC(c2c(O)cc(O)c3c(=O)cc(-c4ccccc4Cl)oc23)C(O)C1 (stereo not drawn)		> 100 µM		0.107 µM		0.0285	0.0532	> 100	0.297	> 100 µM		19.3 µM		> 56.3 µM				> 100 µM	0.337	
CC(C)(C)c1ccc(C2CC(=O)C3=C(C2)Nc2ccccc2N(C(=O)c2ccccc2Cl)C3c2ccc(F)cc2)cc1 (stereo not drawn)	> 100	> 100 µM	> 100	> 100 µM	4.14	> 100	> 100	> 100			> 100	> 100 µM			> 100	> 100 µM	> 100	> 100 µM	> 100	> 100
Cc1cc(=O)[nH]c(N/N=C/c2ccccc2O)n1	4.4	> 100 µM	4.19	19.1 µM	5.61	> 100	4.6	> 100	5.82	> 100 µM	4.02	> 100 µM	5.72	> 100 µM	7.39	> 100 µM	18.7	> 100 µM		
COc1cc(C2c3cc4c(cc3OC(O)C2C)OCO4)cc(OC)c1OC (stereo not drawn)				9.98 µM		2.07		> 100		41.1 µM						> 88.1 µM		> 65 µM	7.53	
COc1cc(F)c(F)cc1C(=O)c1cnc(NC2CCN(S(C)(=O)=O)CC2)nc1N	3.18	> 25 µM	2.07	> 14.4 µM	3.66	> 16.2	1.27	24.8	7.29	> 25 µM	4.86	18.8 µM	3.7	> 25 µM	3.19	> 23.6 µM	4.49	> 25 µM		
CCOC(=O)c1sc2c(C(=O)OCC)n3cc(C)cc(C)c3c2c1O		> 100 µM		> 100 µM				> 100		> 100 µM		> 100 µM		> 100 µM		> 100 µM		> 100 µM	> 100	
O=C(O)c1c2c(cc3c(=O)c4ccccc4[nH]c13)CCCC2		> 100 µM				> 100		> 100				> 100 µM		> 100 µM		> 100 µM		> 100 µM	> 100	
CC1=C(CO)C(=O)O[C@@H]([C@@H](C)[C@H]2CC[C@H]3[C@@H]4C[C@H]5O[C@]56[C@@H](O)C=CC(=O)[C@]6(C)[C@H]4CC[C@]23C)C1		3.96 µM		2.79 µM		37.5		0.603		2.5 µM						2.02 µM	0.463	1.78 µM	1.46	
O=c1cc(-c2ccccc2)[nH]c2c1CCCC2	4.55	> 100 µM	0.883	45.4 µM	4.67	> 100	1.64	> 100	0.85	> 100 µM	3.4	> 100 µM	2	> 100 µM	11.6	> 100 µM	13.4	> 100 µM		
O=C1C=CC(=O)c2c1ccc1c3ccccc3n(Cc3ccccc3)c21		> 100 µM		> 90 µM		34.6		25.7		10.6 µM		10.9 µM		57 µM		35.4 µM		42.9 µM		
CC(C)N(C(=O)C12C3C4C5(C(=O)O)C(C1C35I)C42C(=O)O)C(C)C (stereo not drawn)		> 100 µM		> 100 µM				> 100		> 100 µM		> 100 µM		> 100 µM		> 100 µM		> 100 µM	> 100	
CN(C)CCN1C(=O)c2cccc3c(/C=C/CN4C(=O)c5cccc6cccc(c56)C4=O)ccc(c23)C1=O	> 100	> 100 µM	> 100	> 100 µM	> 100	> 100	> 100	> 100			0.339	69.9 µM	> 100	> 100 µM	28.3	> 100 µM	21.9	70.5 µM	20.1	3.67

Reference: PubChem BioAssay (NCI)
